The source of these data is patent US20070037817A1, “Acetylenic piperazines as metabotropic glutamate receptor antagonists” (AstraZeneca AB, priority 2005, published 2007).

For orientation: IC50 means the concentration that inhibits the measured activity by half. High values mean a need for much substance, low ones inhibition by little substance.

The assay deals with T1, human mGluR5d (Homo sapiens, UniProt P41594).
T1 construct: expressed in transfected cells; host or cells: GHEK (HEK cells expressing a glutamate transporter) for the IP3 assay
T1 sequence (P41594 21-942 isoform P41594-3 limits assumed): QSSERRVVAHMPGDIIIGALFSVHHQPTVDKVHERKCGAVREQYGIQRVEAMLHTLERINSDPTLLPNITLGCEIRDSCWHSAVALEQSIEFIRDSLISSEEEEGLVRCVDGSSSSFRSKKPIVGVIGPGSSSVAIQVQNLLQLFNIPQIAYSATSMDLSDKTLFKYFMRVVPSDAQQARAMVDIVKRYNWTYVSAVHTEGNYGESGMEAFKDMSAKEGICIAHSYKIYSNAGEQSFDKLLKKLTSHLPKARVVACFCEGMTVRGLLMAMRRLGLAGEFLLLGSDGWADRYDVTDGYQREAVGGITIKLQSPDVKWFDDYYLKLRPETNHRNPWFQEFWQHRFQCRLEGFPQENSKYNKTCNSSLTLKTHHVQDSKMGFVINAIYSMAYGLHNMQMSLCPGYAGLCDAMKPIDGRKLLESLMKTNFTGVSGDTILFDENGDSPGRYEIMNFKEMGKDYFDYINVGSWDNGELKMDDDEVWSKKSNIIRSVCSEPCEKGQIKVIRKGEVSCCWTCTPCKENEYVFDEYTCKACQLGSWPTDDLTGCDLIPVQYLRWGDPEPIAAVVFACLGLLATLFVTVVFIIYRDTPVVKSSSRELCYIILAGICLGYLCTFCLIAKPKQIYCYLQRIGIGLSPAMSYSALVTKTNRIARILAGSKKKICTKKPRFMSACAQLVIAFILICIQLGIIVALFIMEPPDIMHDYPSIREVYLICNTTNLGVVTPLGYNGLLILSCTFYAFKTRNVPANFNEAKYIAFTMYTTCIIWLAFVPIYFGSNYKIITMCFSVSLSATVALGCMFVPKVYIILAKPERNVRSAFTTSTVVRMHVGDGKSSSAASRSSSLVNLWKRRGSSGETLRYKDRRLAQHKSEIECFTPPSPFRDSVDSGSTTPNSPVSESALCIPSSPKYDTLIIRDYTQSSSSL
Nature of the assay: Functional assessment of mGluR5 antagonism in cell lines expressing mGluR5d (FLIPR [Ca2+]i mobilization assay / IP3 turnover assay; assay behind the values not specified). The conditions noted are these: assays described herein (FLIPR or IP3), cells expressing human mGluR5d. It counts as cell-based. The source says: The pharmacological properties of the compounds of the invention can be analyzed using standard assays for functional activity. Examples of glutamate receptor assays are well known in the art as described in for example Aramori et al., Neuron 8:757 (1992), Tanabe et al., Neuron 8:169 (1992), Miller et al., J. Neuroscience 15: 6103 (1995), Balazs, et al., J Neurochemistry 69:151 (1997). The methodology described in these publications is incorporated herein by reference. Conveniently, the compounds of the invention can be studied by means of an assay that measures the mobilization of intracellular calcium, [Ca^2+]i in cells expressing mGluR5.
Intracellular calcium mobilization was measured by detecting changes in fluorescence of cells loaded with the fluorescent indicator fluo-3. Fluorescent signals were measured using the FLIPR system (Molecular Devices). A two addition experiment was used that could detect compounds that either activate or antagonize the receptor.
For FLIPR analysis, cells expressing human mGluR5d were seeded on collagen coated clear bottom 96-well plates with black sides and analysis of [Ca^2+]i mobilization was done 24 hours after seeding.
FLIPR experiments were done using a laser setting of 0.800 W and a 0.4 second CCD camera shutter speed. Each FLIPR experiment was initiated with 160 μL of buffer present in each well of the cell plate. After each addition of the compound, the fluorescence signal was sampled 50 times at 1 second intervals followed by 3 samples at 5 second intervals. Responses were measured as the peak height of the response within the sample period.
EC50 and IC50 determinations were made from data obtained from 8-point concentration response curves (CRC) performed in duplicate. Agonist CRC were generated by scaling all responses to the maximal response observed for the plate. Antagonist block of the agonist challenge was normalized to the average response of the agonist challenge in 14 control wells on the same plate.
We have validated a secondary functional assay for mGluR5d based on Inositol Phosphate (IP3) turnover. IP3 accumulation is measured as an index of receptor mediated phospholipase C turnover. GHEK cells stably expressing the human mGluR5d receptors were incubated with [3H] myo-inositol overnight, washed three times in HEPES buffered saline and pre-incubated for 10 min. with 10 mM LiCl. Compounds (agonists) were added and incubated for 30 min. at 37° C. Antagonist activity was determined by pre-incubating test compounds for 15 min., then incubating in the presence of glutamate (80 μM) or DHPG (30 μM) for 30 min. Reactions were terminated by the addition of perchloric acid (5%). Samples were collected and neutralized, and inositol phosphates were separated using Gravity-Fed Ion-Exchange Columns.
Functional assessment of mGluR5 Antagonism in Cell Lines Expressing mGluR5D
The properties of the compounds of the invention can be analyzed using standard assays for pharmacological activity. Examples of glutamate receptor assays are well known in the art as described in for example Aramori et al., Neuron 8:757 (1992), Tanabe et al., Neuron 8:169 (1992), Miller et al., J. Neuroscience 15: 6103 (1995), Balazs, et al., J. Neurochemistry 69:151 (1997). The methodology described in these publications is incorporated herein by reference. Conveniently, the compounds of the invention can be studied by means of an assay (FLIPR) that measures the mobilization of intracellular calcium, [Ca^2+]i in cells expressing mGluR5 or another assay (IP3) that measures inositol phosphate turnover.
Cells expressing human mGluR5d as described in WO97/05252 are seeded at a density of 100,000 cells per well on collagen coated clear bottom 96-well plates with black sides and experiments are done 24 h following seeding. All assays are done in a buffer containing 127 mM NaCl, 5 mM KCl, 2 mM MgCl2, 0.7 mM NaH2PO4, 2 mM CaCl2, 0.422 mg/ml NaHCO3, 2.4 mg/ml HEPES, 1.8 mg/ml glucose and 1 mg/ml BSA Fraction IV (pH 7.4). […]
Regarding `COC(=O)c1cccnc1N1CCN2[C@@H](CC[C@@H]2C#Cc2cccc(Cl)c2)C1` (racemic) [Example 13.12, (±)-methyl 2-[(6R,8aS)-6-[(3-chloro-phenyl)ethynyl]hexahydropyrrolo[1,2-a]pyrazin-2(1H)-yl]nicotinate], it took 23 nM to reach half-maximal inhibition (IC50).
Next, `N#Cc1nccnc1N1CCN2[C@@H](CC[C@@H]2C#Cc2nccs2)C1` (racemic) [Example 14.26, (±)-3-[(6R,8aS)-6-(1,3-thiazol-2-yl-ethynyl)hexahydropyrrolo[1,2-a]pyrazin-2(1H)-yl]pyrazine-2-carbonitrile]: 439 nM; `N#Cc1cccc(C#C[C@H]2CCC[C@H]3CN(c4ncccc4C#N)CCN32)c1` (racemic) [Example 18.3, (±)-2-{(6R,9aS)-6-[(3-cyanophenyl)ethynyl]octahydro-2H-pyrido[1,2-a]pyrazin-2-yl}nicotinonitrile]: 20 nM; `N#Cc1cc(F)cnc1N1CCN2[C@@H](CCC[C@@H]2C#Cc2ccccn2)C1` (racemic) [Example 18.7, (±)-5-fluoro-2-[(6R,9aS)-6-(pyridin-2-ylethynyl)octahydro-2H-pyrido [1,2-a]pyrazin-2-yl]nicotinonitrile]: 83 nM.
`CCOC(=O)N1CCN2[C@@H](CC[C@H]2C#Cc2cccc(Cl)c2)C1` [Example 12.3, ethyl (6S,8aS)-6-[(3-chloro-phenyl)ethynyl]hexahydropyrrolo[1,2-a]pyrazine-2(1H)-carboxylate] registered an IC50 of 187 nM.
Next, `N#Cc1ccc(N2CCN3[C@@H](CC[C@H]3C#Cc3cccc(Cl)c3)C2)nc1` [Example 13.3, 6-[(6S,8aS)-6-[(3-chlorophenyl)ethynyl]hexahydropyrrolo[1,2-a]pyrazin-2(1H)-yl]nicotinonitrile]: 486 nM.
